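Five compound concentrations were applied to cells in 96-well plates for 48 hours; endpoints were derived by simple linear interpolation of the resulting dose-response curve. TGI denotes the concentration required for complete inhibition of growth.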
Assays:
Assay in all cases: NCI tumour cell line growth inhibition, 48 h
CAKI-1 renal = tested on: CAKI-1 renal
HOP-62 NSCLC = tested on: HOP-62 NSCLC
786-0 renal = tested on: 786-0 renal
RXF 393 renal = tested on: RXF 393 renal
OVCAR-5 ovarian = tested on: OVCAR-5 ovarian
ACHN renal = tested on: ACHN renal
A549 NSCLC = tested on: A549 NSCLC
EKVX NSCLC = tested on: EKVX NSCLC
OVCAR-8 ovarian = tested on: OVCAR-8 ovarian
HL-60(TB) leukemia = tested on: HL-60(TB) leukemia
SK-MEL-5 melanoma = tested on: SK-MEL-5 melanoma
NCI-H226 lung = tested on: NCI-H226 lung
SR leukemia = tested on: SR leukemia
MDA-N = tested on: MDA-N
NCI-H522 lung = tested on: NCI-H522 lung
HT29 colon = tested on: HT29 colon
IGROV1 ovarian = tested on: IGROV1 ovarian
MALME-3M melanoma = tested on: MALME-3M melanoma
NCI/ADR-RES ovarian = tested on: NCI/ADR-RES ovarian
HOP-92 NSCLC = tested on: HOP-92 NSCLC
NCI-H23 lung = tested on: NCI-H23 lung
LOX IMVI melanoma = tested on: LOX IMVI melanoma
CCRF-CEM leukemia = tested on: CCRF-CEM leukemia
UO-31 renal = tested on: UO-31 renal
UACC-62 melanoma = tested on: UACC-62 melanoma
COLO 205 colon = tested on: COLO 205 colon
HCT-116 colon = tested on: HCT-116 colon
U251 CNS = tested on: U251 CNS
SNB-75 CNS = tested on: SNB-75 CNS
MDA-MB-435 = tested on: MDA-MB-435
M14 melanoma = tested on: M14 melanoma
UACC-257 melanoma = tested on: UACC-257 melanoma
T-47D breast = tested on: T-47D breast
HS 578T breast = tested on: HS 578T breast
MOLT-4 leukemia = tested on: MOLT-4 leukemia
KM12 colon = tested on: KM12 colon
DU-145 prostate = tested on: DU-145 prostate
MDA-MB-231 breast = tested on: MDA-MB-231 breast
SF-539 CNS = tested on: SF-539 CNS
MCF7 breast = tested on: MCF7 breast
NCI-H460 lung = tested on: NCI-H460 lung
SN12C renal = tested on: SN12C renal
OVCAR-3 ovarian = tested on: OVCAR-3 ovarian
HCT-15 colon = tested on: HCT-15 colon
OVCAR-4 ovarian = tested on: OVCAR-4 ovarian
SF-268 CNS = tested on: SF-268 CNS
K-562 leukemia = tested on: K-562 leukemia
SK-MEL-28 melanoma = tested on: SK-MEL-28 melanoma
SW-620 colon = tested on: SW-620 colon
SK-OV-3 ovarian = tested on: SK-OV-3 ovarian
SK-MEL-2 melanoma = tested on: SK-MEL-2 melanoma
BT-549 breast = tested on: BT-549 breast
TK-10 renal = tested on: TK-10 renal
A498 renal = tested on: A498 renal
SF-295 CNS = tested on: SF-295 CNS
HCC-2998 colon = tested on: HCC-2998 colon
SNB-19 CNS = tested on: SNB-19 CNS
PC-3 prostate = tested on: PC-3 prostate
RPMI-8226 leukemia = tested on: RPMI-8226 leukemia

Compound: Brc1sc(Br)c2c1[C@H](Br)C[C@@H]2Br
- TGI (CAKI-1 renal): > 100 µM
- TGI (HOP-62 NSCLC): > 100 µM
- TGI (786-0 renal): > 100 µM
- TGI (RXF 393 renal): 10.4 µM
- TGI (OVCAR-5 ovarian): > 100 µM
- TGI (ACHN renal): 97.9 µM
- TGI (A549 NSCLC): > 100 µM
- TGI (EKVX NSCLC): > 100 µM
- TGI (OVCAR-8 ovarian): 57.2 µM
- TGI (HL-60(TB) leukemia): 75.2 µM
- TGI (SK-MEL-5 melanoma): > 100 µM
- TGI (NCI-H226 lung): 59.2 µM
- TGI (SR leukemia): 97.7 µM
- TGI (MDA-N): > 100 µM
- TGI (NCI-H522 lung): 34.2 µM
- TGI (HT29 colon): > 100 µM
- TGI (IGROV1 ovarian): > 100 µM
- TGI (MALME-3M melanoma): 63.2 µM
- TGI (NCI/ADR-RES ovarian): 63.9 µM
- TGI (HOP-92 NSCLC): 61.5 µM
- TGI (NCI-H23 lung): 51.1 µM
- TGI (LOX IMVI melanoma): 43.8 µM
- TGI (CCRF-CEM leukemia): > 100 µM
- TGI (UO-31 renal): 45.8 µM
- TGI (UACC-62 melanoma): 88 µM
- TGI (COLO 205 colon): > 100 µM
- TGI (HCT-116 colon): > 100 µM
- TGI (U251 CNS): > 100 µM
- TGI (SNB-75 CNS): 85.3 µM
- TGI (MDA-MB-435): > 100 µM
- TGI (M14 melanoma): > 100 µM
- TGI (UACC-257 melanoma): > 100 µM
- TGI (T-47D breast): > 100 µM
- TGI (HS 578T breast): 77.1 µM
- TGI (MOLT-4 leukemia): 95.5 µM
- TGI (KM12 colon): > 100 µM
- TGI (DU-145 prostate): 61.2 µM
- TGI (MDA-MB-231 breast): > 100 µM
- TGI (SF-539 CNS): 44.5 µM
- TGI (MCF7 breast): 98.5 µM
- TGI (NCI-H460 lung): > 100 µM
- TGI (SN12C renal): > 100 µM
- TGI (OVCAR-3 ovarian): > 100 µM
- TGI (HCT-15 colon): > 100 µM
- TGI (OVCAR-4 ovarian): 44.9 µM
- TGI (SF-268 CNS): 53.4 µM
- TGI (K-562 leukemia): > 100 µM
- TGI (SK-MEL-28 melanoma): > 100 µM
- TGI (SW-620 colon): > 100 µM
- TGI (SK-OV-3 ovarian): > 100 µM
- TGI (SK-MEL-2 melanoma): 56 µM
- TGI (BT-549 breast): 79 µM
- TGI (TK-10 renal): > 100 µM
- TGI (A498 renal): > 100 µM

Compound: COc1ccc(N2C(=O)C3c4[nH]c5ccc(OC)cc5c4C4CCC(C(C)C)CC4C3C2=O)cc1 (stereo unspecified)
- TGI (CAKI-1 renal): > 100 µM
- TGI (HOP-62 NSCLC): 54.8 µM
- TGI (786-0 renal): > 55.2 µM
- TGI (SF-295 CNS): > 100 µM
- TGI (RXF 393 renal): > 100 µM
- TGI (OVCAR-5 ovarian): > 100 µM
- TGI (ACHN renal): > 100 µM
- TGI (A549 NSCLC): > 100 µM
- TGI (EKVX NSCLC): > 100 µM
- TGI (OVCAR-8 ovarian): > 100 µM
- TGI (HL-60(TB) leukemia): > 100 µM
- TGI (SK-MEL-5 melanoma): > 100 µM
- TGI (HCC-2998 colon): > 100 µM
- TGI (NCI-H226 lung): > 100 µM
- TGI (MDA-N): > 100 µM
- TGI (NCI-H522 lung): > 100 µM
- TGI (HT29 colon): > 100 µM
- TGI (IGROV1 ovarian): > 100 µM
- TGI (NCI/ADR-RES ovarian): > 100 µM
- TGI (HOP-92 NSCLC): > 100 µM
- TGI (NCI-H23 lung): > 100 µM
- TGI (LOX IMVI melanoma): > 100 µM
- TGI (CCRF-CEM leukemia): > 30.3 µM
- TGI (UO-31 renal): > 100 µM
- TGI (UACC-62 melanoma): > 31.6 µM
- TGI (COLO 205 colon): > 100 µM
- TGI (HCT-116 colon): > 100 µM
- TGI (U251 CNS): > 100 µM
- TGI (SNB-75 CNS): > 65.5 µM
- TGI (MDA-MB-435): > 100 µM
- TGI (SNB-19 CNS): 99.4 µM
- TGI (M14 melanoma): > 100 µM
- TGI (UACC-257 melanoma): > 100 µM
- TGI (T-47D breast): > 100 µM
- TGI (HS 578T breast): > 84.4 µM
- TGI (MOLT-4 leukemia): > 93.5 µM
- TGI (KM12 colon): > 100 µM
- TGI (DU-145 prostate): > 100 µM
- TGI (PC-3 prostate): > 100 µM
- TGI (MDA-MB-231 breast): > 100 µM
- TGI (MCF7 breast): > 100 µM
- TGI (NCI-H460 lung): > 100 µM
- TGI (SN12C renal): > 100 µM
- TGI (OVCAR-3 ovarian): > 100 µM
- TGI (HCT-15 colon): > 100 µM
- TGI (RPMI-8226 leukemia): > 100 µM
- TGI (OVCAR-4 ovarian): > 100 µM
- TGI (SF-268 CNS): > 74.5 µM
- TGI (K-562 leukemia): > 31.6 µM
- TGI (SK-MEL-28 melanoma): > 100 µM
- TGI (SW-620 colon): > 100 µM
- TGI (SK-OV-3 ovarian): > 100 µM
- TGI (SK-MEL-2 melanoma): > 100 µM
- TGI (BT-549 breast): > 100 µM
- TGI (TK-10 renal): > 100 µM
- TGI (A498 renal): > 92.5 µM

Compound: COc1ccc(NS(=O)c2ccc(Cl)cc2)cc1 (stereo unspecified)
- TGI (HOP-62 NSCLC): > 100 µM
- TGI (786-0 renal): > 100 µM
- TGI (SF-295 CNS): > 100 µM
- TGI (ACHN renal): > 100 µM
- TGI (A549 NSCLC): > 100 µM
- TGI (EKVX NSCLC): > 100 µM
- TGI (OVCAR-8 ovarian): > 100 µM
- TGI (HL-60(TB) leukemia): > 100 µM
- TGI (SK-MEL-5 melanoma): > 100 µM
- TGI (HCC-2998 colon): > 100 µM
- TGI (NCI-H226 lung): 81.1 µM
- TGI (SR leukemia): > 100 µM
- TGI (MDA-N): > 100 µM
- TGI (NCI-H522 lung): > 100 µM
- TGI (HT29 colon): > 100 µM
- TGI (IGROV1 ovarian): > 100 µM
- TGI (MALME-3M melanoma): 60 µM
- TGI (NCI/ADR-RES ovarian): > 100 µM
- TGI (NCI-H23 lung): > 100 µM
- TGI (LOX IMVI melanoma): > 100 µM
- TGI (CCRF-CEM leukemia): > 100 µM
- TGI (UO-31 renal): 42.4 µM
- TGI (UACC-62 melanoma): 39.9 µM
- TGI (COLO 205 colon): > 100 µM
- TGI (HCT-116 colon): > 100 µM
- TGI (U251 CNS): 54.2 µM
- TGI (MDA-MB-435): 76.1 µM
- TGI (SNB-19 CNS): > 100 µM
- TGI (M14 melanoma): > 100 µM
- TGI (UACC-257 melanoma): > 100 µM
- TGI (T-47D breast): 41.2 µM
- TGI (HS 578T breast): > 100 µM
- TGI (MOLT-4 leukemia): > 100 µM
- TGI (KM12 colon): 23.8 µM
- TGI (DU-145 prostate): > 100 µM
- TGI (MDA-MB-231 breast): > 100 µM
- TGI (SF-539 CNS): 30 µM
- TGI (MCF7 breast): > 100 µM
- TGI (NCI-H460 lung): > 100 µM
- TGI (SN12C renal): > 100 µM
- TGI (OVCAR-3 ovarian): > 100 µM
- TGI (HCT-15 colon): > 100 µM
- TGI (RPMI-8226 leukemia): > 100 µM
- TGI (OVCAR-4 ovarian): > 100 µM
- TGI (SF-268 CNS): 39.2 µM
- TGI (K-562 leukemia): > 100 µM
- TGI (SK-MEL-28 melanoma): > 100 µM
- TGI (SW-620 colon): > 100 µM
- TGI (SK-MEL-2 melanoma): 70 µM
- TGI (BT-549 breast): 63.9 µM
- TGI (TK-10 renal): > 100 µM
